From patent US20220195059A1, “Rank Pathway Inhibitors in Combination with CDK Inhibitors” (INSTITUTO DE MEDICINA MOLECULAR JOÃO LOBO ANTUNES, priority 2019, published 2022)

Key:
MDA-MB-231 TNBC cells = experiment: Alamar blue viability assay, MDA-MB-231 TNBC cells with or without RANK knockdown; type: cell-based, human; conditions: 7 days
Description: For lentiviral transduction, MDA-MB-231GFP+Luc+ cells were seeded in 24-well plates, at a density of 4×10^4 cells/well. 24 hours after seeding, medium was replaced by fresh medium containing 8 μg/ml Polybrene (Sigma) and RANK shRNA (h) lentiviral particles (15-20 μl/well; sc-42960-V, Santa Cruz) or control shRNA lentiviral particles (15-20 μl/well; sc-108080, Santa Cruz). Cells were selected with 0.5 μg/mL Puromycin dihydrochloride (Sigma) starting three days after transduction.
(§1) Cells were seeded in 96 well-plates (2-5×10^4 cells/mL), with or without paclitaxel (Y0000698, Sigma), doxorubicin hydrochloride (D2975000, Sigma), palbociclib (PD 0332991 isethionate, PZ0199, Sigma), ribociclib (LEE011 succinate, SC-488174, Santa Cruz), abemaciclib mesylate (LY2835219, S7158, Selleckchem), fulvestrant (S1191, Selleckchem), everolimus (#73122, StemCell Technologies), full length human OPG (SRP3132, Sigma), and OPG-Fc (Amgen). Medium was replaced every 2 days. After 7 days, 1:10 Alamar blue (Invitrogen) was added to each well and fluorescence was measured 2 hours after incubation (excitation 560 nm; emission 590 nm) in an Infinite M200 microplate reader (Tecan).
RANK KD clones were first generated for use in sensitivity assays. Briefly, MCF-7GFP+Luc+ cells were seeded in multi-well plates and then exposed to fresh medium comprising RANK shRNA (h) lentiviral particles or control shRNA lentiviral particles. The transduced cells were selected using Puromycin dihydrochloride starting three days post-transduction.

[1] = tested on: TNBC cells (MDA-MB-231, MDA-MB-436, MDA-MB-468, MDA-MB-157, HCC1937, BT-20); experiment: Alamar blue viability assay, TNBC cell lines with or without OPG-Fc; type: cell-based, human; conditions: 7 days
Description: as §1
Medium was replaced every two days, and viability was assessed by Alamar blue assay.
Cells were seeded in 96 well-plates (2-5×10^4 cells/mL), with or without palbociclib (PD 0332991 isethionate, PZ0199, Sigma), ribociclib (LEE011 succinate, SC-488174, Santa Cruz), abemaciclib mesylate (LY2835219, S7158, Selleckchem), 3-ATA (sc-202414, Santa Cruz), Cdk4 inhibitor Ill (sc-202988, Santa Cruz), seliciclib (S1153, Selleckchem), and OPG-Fc (PL-33324, Amgen). Medium was replaced every 2 days. After 7 days, 1:10 Alamar blue (Invitrogen) was added to each well and fluorescence was measured 2 hours after incubation (excitation 560 nm; emission 590 nm) in an Infinite M200 microplate reader (Tecan).

[2] = tested on: MDA-MB-231 GFP+Luc+ xenografts; experiment: Pilot study, orthotopic TNBC xenografts; type: in vivo, NSG mice; conditions: measured throughout the experiment; between groups
Description: A pilot study to test the sensitivity of TNBC xenografts to CDK4/6 inhibitors (palbociclib) in combination with RANK pathway blockage (OPG-Fc) was performed. […] As shown in this figure, body weight was not different between groups. The proliferation index of tumors as measured by the quantification of Ki67-positive cells and p-pRB positive cells is shown in FIG. 13D. FIG. 13C is a series of images of Ki67-stained or p-pRb stained cells.

MDA-MB-231 xenografts = experiment: TNBC ectopic xenograft model; type: in vivo, NSG mice; conditions: Palbociclib 30 mg/Kg/day p.o., 21 days; xenografts not regressed
Description: Based on these findings TNBC BC sensitivity to CDK4/6 inhibitors (palbociclib) in combination with RANK pathway blockage was tested in a TNBC ectopicxenograft model (FIG. 27). Nod scid gama (NSG) mice were inoculated subcutaneously and bilaterally in the flanks (n=5/group). Tumors were measured with caliper. When tumors reach approximately 100 mm^3 mice were randomized based on tumor size and treated according to the experimental protocol. Palbociclib was used at 30 mg/Kg/day for 21 consecutive days, as the human equivalent dose (HED) of 125 mg/day approved for palbociclib is equivalent to […] in mice (Nair and Jacob, J Basic Clin Pharm. 2016 March; 7(2):27-31). OPG-Fc was used at 10 mg/Kg 3×/week (HED 291.6 mg/15 days).
Nod scid gama (NSG) mice were inoculated subcutaneously and bilaterally in the flanks with MDA-MB-231 cells (n=4-5/group). Six weeks post inoculation mice were randomized based on tumor size and treated with OPG-Fc 10 mg/Kg i.p. 3× per week; Palbociclib 30 mg/Kg/day p.o. or the combination. […] The data are presented as mean±SEM. p-value was calculated using ANOVA, *p<0.05, **p<0.01, ***p<0.001.
Tumor growth was monitored every two days with caliper and tumor volume calculated using the formula Tvol=½(length×width^2). […]
TRAcP 5b was quantified in mouse serum using the MouseTRAP (TRAcP 5b) ELISA kit (IDS), according to the manufacturer instructions.

Structure (SMILES): CC(=O)c1c(C)c2cnc(Nc3ccc(N4CCNCC4)cn3)nc2n(C2CCCC2)c1=O [palbociclib]
- sensitivity to CDK4/6 inhibitor (cell viability) (MDA-MB-231 TNBC cells; MDA-231 cells and MDA-231 shControl cells): resistance
- sensitivity to CDK4/6 inhibitor (cell viability) (MDA-MB-231 TNBC cells; TNBC RANK KD cells (MDA-231 shRANK) vs RANK expressing cells): restored sensitivity
- sensitivity of TNBC cells to CDK4/6 inhibitor (cell viability) [1]: resistance
- body weight [2]: not different
- tumor growth (tumor volume) (MDA-MB-231 xenografts): slowing of tumor growth
